From patent US7015231B2, “Chemical compounds” (SmithKline Beecham Corporation, priority 2001, dated 2006) come the findings set out here.

T1 sequence (P04629 440-796 limits assumed, species assumed): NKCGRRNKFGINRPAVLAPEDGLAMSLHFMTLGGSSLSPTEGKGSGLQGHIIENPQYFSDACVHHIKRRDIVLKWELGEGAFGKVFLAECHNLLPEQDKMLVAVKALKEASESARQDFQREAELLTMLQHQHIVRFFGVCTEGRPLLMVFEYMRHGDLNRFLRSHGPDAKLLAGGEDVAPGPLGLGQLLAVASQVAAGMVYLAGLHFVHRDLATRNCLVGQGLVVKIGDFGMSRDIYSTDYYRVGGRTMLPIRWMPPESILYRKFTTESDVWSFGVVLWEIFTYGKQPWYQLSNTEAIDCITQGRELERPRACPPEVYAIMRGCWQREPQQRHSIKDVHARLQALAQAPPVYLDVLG

The assay addresses T1, TrkA (Homo sapiens, UniProt P04629).
T1 construct: The enzyme is a GST-fusion of the intracellular domain expressed in SF9 cells; GST; purchased Regeneron; host or cells: SF9 cells
As to the kind of experiment: TrkA substrate phosphorylation assay (tyrosine kinase activity, synthetic peptide substrate, 33P-ATP, p81 filter plates). The class given is biochemical. Particulars: GST-fusion of the TrkA intracellular domain, 30 uM ATP, 50 uM Src peptide, RT for 120′. The protocol:
Substrate phosphorylation assays were carried out as follows:
The enzyme is a GST-fusion of the intracellular domain expressed in SF9 cells. The enzyme is expressed and purified by Regeneron. The enzyme is preincubated with cold ATP and Mg to allow autophosphorylation prior to running the screen. […] The assay is performed in 96 well microtitre plates, and reaction products are detected following filtration through millipore p81 phosphocellulose plates.
For orientation: IC50 means the concentration at which inhibition is half-maximal. Low readings indicate greater potency, high ones weaker potency. Compound `COc1ccccc1-c1cc(C=C2C(=O)Nc3ncc(Br)cc32)cc(Br)c1O` [Example 1, 3-(3-Bromo-4-hydroxy-5-(2′methoxyphenyl)-benzylidene)-5-bromo-1,3-dihydro-pyrrolo[2,3-b]pyridin-2-one] displayed a 50% inhibitory concentration (IC50) of less than 10 nM.

`O=C1Nc2cccnc2C1=Cc1c[nH]c2ccccc12` [Example 3]: the IC50 was 10 to 250 nM.

In turn, `Cn1cc(C=C2C(=O)Nc3ncccc32)c2ccccc21` [Example 4] displayed an IC50 of less than 10 nM.

In turn, `O=C1Nc2ncccc2C1=Cc1c[nH]c2ccccc12` [Example 5] showed a 50% inhibitory concentration (IC50) of less than 10 nM.
